Measurements reported in patent US20220348595A1, “COMPOUNDS AND METHODS FOR THE TARGETED DEGRADATION OF ESTROGEN RECEPTORS” (Endotarget Inc., priority 2021, published 2022).

Key:
Type in all cases: cell-based
[1] = biological target: T1, ER (Homo sapiens, UniProt P03372); assay: ER antagonism (T47D ERE luciferase), T47d-kb-Luc cells; settings: read-out: IC50 (ER antagonistm)
T1 construct: endogenous in cells; host or cells: T47d-kb-Luc (T47D stably transfected with a luciferase reporter gene only)
T1 sequence (P03372 1-595): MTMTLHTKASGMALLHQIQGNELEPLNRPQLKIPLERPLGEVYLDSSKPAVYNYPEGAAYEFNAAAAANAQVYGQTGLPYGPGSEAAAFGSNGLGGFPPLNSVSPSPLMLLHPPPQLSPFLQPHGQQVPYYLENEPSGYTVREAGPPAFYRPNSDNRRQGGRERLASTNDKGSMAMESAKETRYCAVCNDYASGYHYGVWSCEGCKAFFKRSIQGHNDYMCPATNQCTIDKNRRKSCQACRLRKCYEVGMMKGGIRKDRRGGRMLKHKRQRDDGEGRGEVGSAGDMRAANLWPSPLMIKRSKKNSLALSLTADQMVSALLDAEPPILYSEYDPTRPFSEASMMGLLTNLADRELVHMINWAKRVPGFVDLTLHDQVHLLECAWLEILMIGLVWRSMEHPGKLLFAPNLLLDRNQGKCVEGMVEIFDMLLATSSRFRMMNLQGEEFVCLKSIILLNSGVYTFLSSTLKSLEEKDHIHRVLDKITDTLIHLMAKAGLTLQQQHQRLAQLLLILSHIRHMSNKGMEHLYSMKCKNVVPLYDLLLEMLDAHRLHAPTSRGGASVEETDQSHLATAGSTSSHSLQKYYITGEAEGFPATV
Protocol: The Antiestrogenic Activity of the Exemplary Compounds was Assessed in T47d-kb-Luc Stably Transfected Human Breast Cancer Cell
Antagonist activities were measured by the compound's ability to inhibit the activity of estradiol, the natural estrogen. Data were then normalized relative to the activity of the estradiol control and determinations were performed for five concentrations of the samples in quadruplicate in at least three separate experiments.

[2] = test system: MCF-7 breast cancer cells; assay: MCF-7 proliferation / cell viability assay; settings: Homo sapiens, MCF7; MCF-7 proliferation with 0.1 nM 17-beta estradiol; read-out: IC50 (anti-proliferation)
Protocol: The Anti-Proliferative Activities of the Exemplary Compounds were Assessed by a Cell Viability Assay in MCF-7 Breast Cancer Cells
MCF-7 cells were plated in six-well plates at a density of 50,000 each well in 5% FBS DMEM medium. The cells were then treated with exemplary compounds or fulvestrant separately at 6 different doses ranging from 10^−10 M to 10^−5 M for 5 days, while equal volumes of DMSO were used as vehicle controls. Viable cell numbers were counted with a Z Series Coulter Counter instrument (Beckman-Coulter) following manufacturer's instructions. The ratio of drug treated viable cell numbers to vehicle treated viable cell numbers was defined as survival ratio where the control has the survival ratio of 100%.

[3] = biological target: T2, ERα (Homo sapiens, UniProt P03372); assay: ER degradation in MCF-7 cells (Western blot); settings: for DC50: ER degradation, 24 hours; for Dmax: MCF7, Maximal ER degradation, read-out: Dmax
T2 construct: endogenous in cells; host or cells: MCF-7
T2 sequence (P03372 1-595): T1 sequence (P03372 1-595)
Protocol: Degradation of ER in MCF-7 Breast Cancer Cells by Exemplary Compounds of the Present Disclosure
MCF-7 cells were plated in 24-well plates at a density of 10^5 cells/well. Media containing various drug concentrations were added on the day following plating (day 0) and allowed to incubate for 24 hours for Western blot. Media with the tested compound was changed every other day. Cells were lysed, snapped frozen in liquid nitrogen, and stored at −80° C. until assay for ERα. Media were removed and dishes were washed with 1× DPBS. Lysates were made by adding 150 μL of complete lysis solution and scraping cells into a 1.5 mL microcentrifuge tube. Lysates were placed on a rotisserie at 4° C. for 30 min and then spun at 4° C. at 12000 rcf for 10 min. Supernatants were assayed for protein content, snap-frozen, and stored a −80° C. if not run immediately. Then 50 μg of protein was subjected to Western blot protocol. Membranes were blocked and then incubated with 1:200 dilution of ERα antibody at 4° C. overnight followed by 1:10000 dilution of secondary antibody for 1 h at room temperature. They were then imaged on a LICOR infrared scanner.
FIGS. 1 to 10 show the ER degradation efficacy of compounds 3, 5, 9, 11, 12, 16, 18, 19, 20, 21, 23, 24, 25, 26, 27, 28, 29, 30, 31, 32, 33, 34, 37, 38, and 40 in MCF-7 cells at various concentrations. Degradation of ER was expressed as an DC50 value and was determined for exemplary compounds in Table 1 by calculation of the concentration of compound that was required to give a 50% reduction of ER expression level. Maximal degradation of ER was expressed as a Dmax value by measuring the highest percentage of ER reduction achieved by exemplary compound in the treatment concentration range.

Row | SMILES | IC50 [1] [µM] | IC50 [2] [µM] | DC50 [3] [µM] | Dmax [3] [%]
1 | CC/C(=C(/c1ccc(O)cc1)c1ccc(N2CCN(C(=O)N3CCN(c4ccc5c(c4)CN([C@@H]4CCC(=O)NC4=O)C5=O)CC3)CC2)cc1)c1ccccc1 [Compound 102, (R,Z)-3-(5-(4-(4-(4-(1-(4-hydroxyphenyl)-2-phenylbut-1-en-1-yl)phenyl)piperazine-1-carbonyl)piperazin-1-yl)-1-oxoisoindolin-2-yl)piperidine-2,6-dione] | < 0.01 | 0.01 to 0.05 | < 0.01 | > 90
2 | CC/C(=C(/c1ccc(B(O)O)cc1)c1ccc(N2CCC(CN3CCN(c4ccc5c(c4)C(=O)N(C4CCC(=O)NC4=O)C5)CC3)CC2)cc1)c1ccccc1 (centres unmarked) [Compound 4, (E)-(4-(1-(4-(4-((4-(2-(2,6-dioxopiperidin-3-yl)-3-oxoisoindolin-5-yl)piperazin-1-yl)methyl)piperidin-1-yl)phenyl)-2-phenylbut-1-en-1-yl)phenyl)boronic acid] | < 0.01 | < 0.01 | > 0.05 | > 75
3 | CC/C(=C(/c1ccc(O)cc1)c1ccc(N2CCN(C(=O)N3CCC(N4CCN(c5ccc6c(c5)CN(C5CCC(=O)NC5=O)C6=O)CC4)CC3)CC2)cc1)c1ccccc1 (centres unmarked) [Compound 111, (Z)-3-(5-(4-(1-(4-(4-(1-(4-hydroxyphenyl)-2-phenylbut-1-en-1-yl)phenyl)piperazine-1-carbonyl)piperidin-4-yl)piperazin-1-yl)-1-oxoisoindolin-2-yl)piperidine-2,6-dione] | < 0.01 | 0.01 to 0.05 | 0.01 to 0.05 | > 90
4 | CC/C(=C(\c1ccc(O)cc1)c1ccc(N2CCN(C(=O)N3CCN(c4ccc5c(c4)CN([C@@H]4CCC(=O)NC4=O)C5=O)CC3)CC2)cc1)c1ccccc1 [Compound 99, (R,E)-3-(5-(4-(4-(4-(1-(4-hydroxyphenyl)-2-phenylbut-1-en-1-yl)phenyl)piperazine-1-carbonyl)piperazin-1-yl)-1-oxoisoindolin-2-yl)piperidine-2,6-dione] | < 0.01 | 0.01 to 0.05 | 0.01 to 0.05 | > 90
5 | CC/C(=C(/c1ccc(OCCN2CCC(CN3CCN(c4ccc5c(c4)C(=O)N(C4CCC(=O)NC4=O)C5=O)CC3)CC2)cc1)c1ccc(B(O)O)cc1)c1ccccc1 (centres unmarked) [Compound 19, (Z)-(4-(1-(4-(2-(4-((4-(2-(2,6-dioxopiperidin-3-yl)-1,3-dioxoisoindolin-5-yl)piperazin-1-yl)methyl)piperidin-1-yl)ethoxy)phenyl)-2-phenylbut-1-en-1-yl)phenyl)boronic acid] | > 0.05 | > 0.05 | 0.01 to 0.05 | > 75
6 | CC/C(=C(\c1ccc(B(O)O)cc1)c1ccc(N2CCC(CNC3CCN(c4ccc5c(c4)CN(C4CCC(=O)NC4=O)C5=O)CC3)CC2)cc1)c1ccccc1 (centres unmarked) [Compound 11] | < 0.01 | < 0.01 | < 0.01 | > 90
7 | CC/C(=C(/c1ccc(OCCN2CCC(N3CCN(c4ccc5c(c4)C(=O)N(C4CCC(=O)NC4=O)C5=O)CC3)CC2)cc1)c1ccc(B(O)O)cc1)c1ccccc1 (centres unmarked) [Compound 31, (Z)-(4-(1-(4-(2-(4-(4-(2-(2,6-dioxopiperidin-3-yl)-1,3-dioxoisoindolin-5-yl)piperazin-1-yl)piperidin-1-yl)ethoxy)phenyl)-2-phenylbut-1-en-1-yl)phenyl)boronic acid] | > 0.05 | > 0.05 | 0.01 to 0.05 | > 90
8 | CC/C(=C(\c1ccc(B(O)O)cc1)c1ccc(N2CCC(CNC3CCN(c4ccc5c(c4)C(=O)N(C4CCC(=O)NC4=O)C5=O)CC3)CC2)cc1)c1ccccc1 (centres unmarked) [Compound 39, (Z)-(4-(1-(4-(4-(((1-(2-(2,6-dioxopiperidin-3-yl)-1,3-dioxoisoindolin-5-yl)piperidin-4-yl)amino)methyl)piperidin-1-yl)phenyl)-2-phenylbut-1-en-1-yl)phenyl)boronic acid] | 0.01 to 0.05 | 0.01 to 0.05 | < 0.01 | > 90
9 | CC/C(=C(\c1ccc(B(O)O)cc1)c1ccc(N2CCN(CCCN3CCN(c4ccc5c(c4)CN(C4CCC(=O)NC4=O)C5=O)CC3)CC2)cc1)c1ccccc1 (centres unmarked) [Compound 45, (Z)-(4-(1-(4-(4-(3-(4-(2-(2,6-dioxopiperidin-3-yl)-1-oxoisoindolin-5-yl)piperazin-1-yl)propyl)piperazin-1-yl)phenyl)-2-phenylbut-1-en-1-yl)phenyl)boronic acid] | < 0.01 | 0.01 to 0.05 | < 0.01 | > 90
10 | CC/C(=C(/c1ccc(B(O)O)cc1)c1ccc(N2CCN(CCCC3CCN(c4ccc5c(c4)C(=O)N(C4CCC(=O)NC4=O)C5=O)CC3)CC2)cc1)c1ccccc1 (centres unmarked) [Compound 56, (E)-(4-(1-(4-(4-(3-(1-(2-(2,6-dioxopiperidin-3-yl)-1,3-dioxoisoindolin-5-yl)piperidin-4-yl)propyl)piperazin-1-yl)phenyl)-2-phenlbut-1-en-1-yl)phenyl)boronic acid] | 0.01 to 0.05 | 0.01 to 0.05 | < 0.01 | > 75
11 | CC/C(=C(/c1ccc(OCCN2CCC(CCN3CCN(c4ccc5c(c4)CN(C4CCC(=O)NC4=O)C5=O)CC3)CC2)cc1)c1ccc(B(O)O)cc1)c1ccccc1 (centres unmarked) [Compound 29, (Z)-(4-(1-(4-(2-(4-(2-(4-(2-(2,6-dioxopiperidin-3-yl)-1-oxoisoindolin-5-yl)piperazin-1-yl)ethyl)piperidin-1-yl)ethoxy)phenyl)-2-phenylbut-1-en-1-yl)phenyl)boronic acid] | 0.01 to 0.05 | 0.01 to 0.05 | 0.01 to 0.05 | > 90
12 | CC/C(=C(\c1ccc(O)cc1)c1ccc(OCCN2CCN(C(=O)N3CCN(c4ccc5c(c4)CN(C4CCC(=O)NC4=O)C5=O)CC3)CC2)cc1)c1ccccc1 (centres unmarked) [Compound 77] | < 0.01 | < 0.01 | < 0.01 | > 90
13 | CC/C(=C(\c1ccc(OCCN2CCN(CCCN3CCN(c4ccc5c(c4)C(=O)N(C4CCC(=O)NC4=O)C5=O)CC3)CC2)cc1)c1ccc(B(O)O)cc1)c1ccccc1 (centres unmarked) [Compound 38, (E)-(4-(1-(4-(2-(4-(3-(4-(2-(2,6-dioxopiperidin-3-yl)-1,3-dioxoisoindolin-5-yl)piperazin-1-yl)propyl)piperazin-1-yl)ethoxy)phenyl)-2-phenylbut-1-en-1-yl)phenyl)boronic acid] | 0.01 to 0.05 | 0.01 to 0.05 | < 0.01 | > 90
14 | CC/C(=C(\c1ccc(B(O)O)cc1)c1ccc(N2CCN(CCN3CCN(c4ccc5c(c4)CN(C4CCC(=O)NC4=O)C5=O)CC3)CC2)cc1)c1ccccc1 (centres unmarked) [Compound 61, (Z)-(4-(1-(4-(4-(2-(4-(2-(2,6-dioxopiperidin-3-yl)-1-oxoisoindolin-5-yl)piperazin-1-yl)ethyl)piperazin-1-yl)phenyl)-2-phenylbut-1-en-1-yl)phenyl)boronic acid] | 0.01 to 0.05 | 0.01 to 0.05 | < 0.01 | > 90
